Results reported in patent US9458104B2 (priority 2012, dated 2016).

What was measured:
RORγ = molecular target: T1, RORγ (UniProt P51449); assay type: cell-based; conditions: 293T cells, 16 h; for pIC50 (FF): firefly (FF) luciferase; for pIC50 (REN): renilla normalised (RENnorm) luciferase
T1 construct: hRORg-LBD|aa259-518|NP_005051.2; hRORgt|aa1-497|NP_001001523 (RORg, t isoform, 497aa); mRORg-LBD|aa264-516|NP_035411
T1 sequence (P51449 1-518): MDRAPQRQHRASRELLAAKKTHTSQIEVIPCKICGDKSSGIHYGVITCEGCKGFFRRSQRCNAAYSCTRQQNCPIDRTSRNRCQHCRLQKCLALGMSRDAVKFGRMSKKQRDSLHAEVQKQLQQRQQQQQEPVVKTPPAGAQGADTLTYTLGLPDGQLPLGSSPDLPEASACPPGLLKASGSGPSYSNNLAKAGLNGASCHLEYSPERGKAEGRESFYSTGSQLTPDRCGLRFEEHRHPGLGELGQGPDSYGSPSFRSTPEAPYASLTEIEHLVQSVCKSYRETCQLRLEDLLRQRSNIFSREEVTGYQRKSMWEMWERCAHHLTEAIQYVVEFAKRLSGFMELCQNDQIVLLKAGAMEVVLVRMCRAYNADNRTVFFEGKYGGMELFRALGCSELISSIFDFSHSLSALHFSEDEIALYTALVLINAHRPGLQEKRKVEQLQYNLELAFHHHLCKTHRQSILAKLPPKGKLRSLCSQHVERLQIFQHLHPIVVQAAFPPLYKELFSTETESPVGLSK

[1] = molecular target: T2, RORγ ligand binding domain (LBD) (Homo sapiens, UniProt P51449); assay: TR-FRET Activity Assay (ligand sensing assay, RORγ-LBD / coactivator peptide interaction); assay type: biochemical
T2 construct: made in house; host or cells: E. coli BL-21 (BL3), vector pDEST15
T2 sequence (P51449 269-508 limits assumed): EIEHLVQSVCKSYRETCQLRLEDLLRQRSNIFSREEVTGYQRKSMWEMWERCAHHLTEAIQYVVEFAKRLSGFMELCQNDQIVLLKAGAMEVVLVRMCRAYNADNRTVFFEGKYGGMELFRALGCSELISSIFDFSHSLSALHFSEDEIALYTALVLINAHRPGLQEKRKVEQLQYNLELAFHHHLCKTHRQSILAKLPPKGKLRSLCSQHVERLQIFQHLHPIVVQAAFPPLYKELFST
Summary of the method: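 GST-RORγ LBD expressed in bacteria, 20–60 ng/well, with biotinylated coactivator peptide 200–600 nM, streptavidin-APC and Eu-anti-GST. Buffer: 20 mM Tris-HCl pH 6.8, 60 mM KCl, 1 mM DTT, 5 mM MgCl2, BSA; 1% DMSO. LANCE TR-FRET 665/615 nm ratio; IC50 from four-parameter logistic fit.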

| SMILES | pIC50 (FF) (RORγ) | pIC50 (REN) (RORγ) | IC50 [1] [nM] |
| --- | --- | --- | --- |
| Cc1c(C(=O)N[C@H]2C[C@H](C(=O)O)C2)cn(-c2cc(C(C)(C)C)cc(C3(C)CC3)c2)c1[S+]([O-])C1CCCCC1 (stereo partly drawn) [Example 22, trans-3-(1-(3-(tert-Butyl)-5-(1-methylcyclopropyl)phenyl)-5-(cyclohexylsulfinyl)-4-methyl-1H-pyrrole-3-carboxamido)cyclobutanecarboxylic acid] | 7.1 | 7.1 | 2000 |
| Cc1c(C(=O)N[C@H]2C[C@H](C(=O)O)C2)cn(-c2cc(C(C)(C)C)cc(C3(C)CC3)c2)c1S(=O)(=O)C1CCCCC1 [Example 23, trans-3-(1-(3-(tert-Butyl)-5-(1-methylcyclopropyl)phenyl)-5-(cyclohexylsulfonyl)-4-methyl-1H-pyrrole-3-carboxamido)cyclobutanecarboxylic acid] | 6.4 | 6.5 | 1580 |
| Cc1c(C(=O)NCCC(C)(C)C(=O)O)c(F)n(-c2ccc(S(=O)(=O)NC(C)(C)C)c(C(F)(F)F)c2)c1CC1CCCCC1 [Example 25, 4-(1-(4-(N-(tert-Butyl)sulfamoyl)-3-(trifluoromethyl)phenyl)-5-(cyclohexylmethyl)-2-fluoro-4-methyl-1H-pyrrole-3-carboxamido)-2,2-dimethylbutanoic acid] | 8.3 | 8.3 | 631 |
| Cn1c(C(=O)N[C@H]2C[C@H](C(=O)O)C2)cc(-c2cc(C(C)(C)C)cc(C3(C)CC3)c2)c1C(=O)C1CCCCC1 [Example 26, trans-3-(4-(3-(tert-Butyl)-5-(1-methylcyclopropyl)phenyl)-5-(cyclohexanecarbonyl)-1-methyl-1H-pyrrole-2-carboxamido)cyclobutanecarboxylic acid] | 8.5 | 8.5 | 501 |
| CC(C)(C)c1cc(-c2cc(C(=O)N[C@H]3C[C@H](C(=O)O)C3)nn2CC2CCCCC2)cc(C2(C)CC2)c1 [Example 100, (trans)-3-(5-(3-(tert-Butyl)-5-(1-methylcyclopropyl)phenyl)-1-(cyclohexylmethyl)-1H-pyrazole-3-carboxamido)cyclobutanecarboxylic acid] | 6.9 | 7.0 | 501 |
| CCNC(=O)c1cc(CC2CCCCC2)n(-c2cc(C(C)(C)C)cc(C(C)(C)C)c2)n1 [Example 102/1] | 5.9 | 6.0 | 631 |
| CC1(CNC(=O)c2nn(-c3cc(C(C)(C)C)nc(C(C)(C)C)c3)c(CC3CCCCC3)c2Cl)COC1 [Example 105, 4-Chloro-5-(cyclohexylmethyl)-1-(2,6-di-tert-butylpyridin-4-yl)-N-((3-methyloxetan-3-yl)methyl)-1H-pyrazole-3-carboxamide] | < 4.7 | < 4.7 | 6310 |
| CC(C)(C)NS(=O)(=O)c1ccc(-c2c(Cl)c(C(=O)N[C@H]3C[C@H](C(=O)O)C3)nn2CC2CCCCC2)cc1C(F)(F)F [Example 108, trans-3-(5-(4-(N-(tert-Butyl)sulfamoyl)-3-(trifluoromethyl)phenyl)-4-chloro-1-(cyclohexylmethyl)-1H-pyrazole-3-carboxamido)cyclobutanecarboxylic acid] | 6.4 | 6.4 | 501 |
| CC(C)(C)NS(=O)(=O)c1ccc(-c2c(F)c(C(=O)NCCC(C)(C)C(=O)O)nn2CC2CCCCC2)cc1C(F)(F)F [Example 109, 4-(5-(4-(N-(tert-Butyl)sulfamoyl)-3-(trifluoromethyl)phenyl)-1-(cyclohexylmethyl)-4-fluoro-1H-pyrazole-3-carboxamido)-2,2-dimethylbutanoic acid] | 6.7 | 6.8 | 501 |
| CC(C)(C)NS(=O)(=O)c1ccc(-c2cc(C(=O)N[C@H]3C[C@H](C(=O)O)C3)nn2CC2CCCCC2)c(Cl)c1Cl [Example 112, trans-3-(5-(4-(N-(tert-Butyl)sulfamoyl)-2,3-dichlorophenyl)-1-(cyclohexylmethyl)-1H-pyrazole-3-carboxamido)cyclobutanecarboxylic acid] | 6.9 | 6.9 | 316 |
| CC(C)(C)NS(=O)(=O)c1ccc(-c2cc(C(=O)NC3CCS(=O)(=O)CC3)nn2CC2CCCCC2)c(Cl)c1Cl [Example 112/1] | 7.5 | 7.6 | 501 |
| Cc1c(C(=O)N[C@H]2C[C@H](C(=O)O)C2)cn(-c2cc(C(C)(C)C)cc(C3(C)CC3)c2)c1C(=O)c1ccccc1 [Example 301, (trans)-3-(5-Benzoyl-1-(3-(tert-butyl)-5-(1-methylcyclopropyl)phenyl)-4-methyl-1H-pyrrole-3-carboxamido)cyclobutanecarboxylic acid] | 6.7 | 6.8 | 501 |
| CCS(=O)(=O)c1ccc(CNC(=O)c2cc(-c3ccc(S(=O)(=O)NC(C)(C)C)c(C(F)(F)F)c3)n(CC3CCCCC3)c2C)cc1 [Example 302, 5-(4-(N-(tert-Butyl)sulfamoyl)-3-(trifluoromethyl)phenyl)-1-(cyclohexylmethyl)-N-(4-(ethylsulfonyl)benzyl)-2-methyl-1H-pyrrole-3-carboxamide] | 7.6 | 7.8 | 6.31 |
| Cc1c(C(=O)NC2CCOCC2)cc(-c2ccc(S(=O)(=O)NC(C)(C)C)c(C(C)(C)C)c2)n1CC(C)(C)C [Example 302/1] | 6.3 | 6.4 | 1580 |
| CC(C)(C)c1cc(-c2cc(C(N)=O)[nH]c2CC2CCCCC2)cc(C(C)(C)C)c1 [Example 303, 5-(Cyclohexylmethyl)-4-(3,5-di-tert-butylphenyl)-1H-pyrrole-2-carboxamide] | < 4.7 | < 4.7 | 501 |
| Cn1c(C(N)=O)cc(-c2cc(C(C)(C)C)cc(C(C)(C)C)c2)c1CC1CCCCC1 [Example 304, 5-(Cyclohexylmethyl)-4-(3,5-di-tert-butylphenyl)-1-methyl-1H-pyrrole-2-carboxamide] | 6.1 | 6.1 | 126 |
| Cc1c(C(N)=O)cn(-c2cc(C(C)(C)C)cc(C(C)(C)C)c2)c1CC1CCCCC1 [Example 305, 5-(Cyclohexylmethyl)-1-(3,5-di-tert-butylphenyl)-4-methyl-1H-pyrrole-3-carboxamide] | 6.3 | 6.3 | 200 |
| CC(C)(C)c1cc(-c2nc(C(N)=O)nn2CC2CCCCC2)cc(C(C)(C)C)c1O [Example 306, 1-(Cyclohexylmethyl)-5-(3,5-di-tert-butyl-4-hydroxyphenyl)-1H-1,2,4-triazole-3-carboxamide] | 5.9 | 6.0 | 794 |
| CC(C)(C)c1cc(-c2nc(C(=O)NC3CC3)nn2CC2CCCCC2)cc(C(C)(C)C)c1 [Example 307, 1-(Cyclohexylmethyl)-N-cyclopropyl-5-(3,5-di-tert-butylphenyl)-1H-1,2,4-triazole-3-carboxamide] | 5.9 | 6.1 | 794 |
| Cc1cc(-c2nc(C(N)=O)nn2CC2CCCCC2)cc(C(C)(C)C)c1O [Example 308, 5-(3-(tert-Butyl)-4-hydroxy-5-methylphenyl)-1-(cyclohexylmethyl)-1H-1,2,4-triazole-3-carboxamide] | 6.0 | 5.9 | 7940 |
| CC(C)(C)c1cc(-c2nc(S(N)(=O)=O)nn2CC2CCCCC2)cc(C(C)(C)C)c1 [Example 309, 1-(Cyclohexylmethyl)-5-(3,5-di-tert-butylphenyl)-1H-1,2,4-triazole-3-sulfonamide] | < 4.7 | < 4.7 | 3160 |
| CC(=O)NS(=O)(=O)c1nc(-c2cc(C(C)(C)C)cc(C(C)(C)C)c2)n(CC2CCCCC2)n1 [Example 310, N-((1-(Cyclohexylmethyl)-5-(3,5-di-tert-butylphenyl)-1H-1,2,4-triazol-3-yl)sulfonyl)acetamide] | < 4.7 | < 4.7 | 12600 |
| CC(C)(C)c1cc(-n2nc(C(N)=O)cc2CC2CCCCC2)cc(C(C)(C)C)c1 [Example 312, 5-(Cyclohexylmethyl)-1-(3,5-di-tert-butylphenyl)-1H-pyrazole-3-carboxamide] | 6.2 | 6.3 | 251 |
